Source: ChEMBL document CHEMBL3603825, “Synthesis and evaluation of arylpiperazine-reverse amides as biased dopamine D3 receptor ligands” (Bioorg Med Chem, 2015)
Values joined by “and” are separate entries in the source; they are usually repeats but may differ in a detail not shown here. Identical values can stand only once.

Tests used:
D(3) dopamine receptor [1] = target: T1, D(3) dopamine receptor (Homo sapiens, UniProt P35462); test: Displacement of [3H]-sulpiride from human dopamine D3 receptor expressed in HEK293 cells at 100 nM after 150 mins by liquid scintillation counting; type: cell-based
D(2) dopamine receptor [2] = target: T2, D(2) dopamine receptor (Homo sapiens, UniProt P14416); test: Displacement of [3H]-sulpiride from human dopamine D2 receptor expressed in HEK293 cells at 100 nM after 150 mins by liquid scintillation counting; type: cell-based
D(3) dopamine receptor [3] = target: T1, D(3) dopamine receptor; test: Displacement of [3H]-sulpiride from human dopamine D3 receptor expressed in HEK293 cells after 150 mins by liquid scintillation counting; type: cell-based
D(2) dopamine receptor [4] = target: T2, D(2) dopamine receptor; test: Displacement of [3H]-sulpiride from human dopamine D2 receptor expressed in HEK293 cells after 150 mins by liquid scintillation counting; type: cell-based
Homo sapiens = species on record: Homo sapiens; test: Selectivity ratio of Ki for human dopamine D2 receptor to Ki for human dopamine D3 receptor

T1 sequence (P35462 whole entry): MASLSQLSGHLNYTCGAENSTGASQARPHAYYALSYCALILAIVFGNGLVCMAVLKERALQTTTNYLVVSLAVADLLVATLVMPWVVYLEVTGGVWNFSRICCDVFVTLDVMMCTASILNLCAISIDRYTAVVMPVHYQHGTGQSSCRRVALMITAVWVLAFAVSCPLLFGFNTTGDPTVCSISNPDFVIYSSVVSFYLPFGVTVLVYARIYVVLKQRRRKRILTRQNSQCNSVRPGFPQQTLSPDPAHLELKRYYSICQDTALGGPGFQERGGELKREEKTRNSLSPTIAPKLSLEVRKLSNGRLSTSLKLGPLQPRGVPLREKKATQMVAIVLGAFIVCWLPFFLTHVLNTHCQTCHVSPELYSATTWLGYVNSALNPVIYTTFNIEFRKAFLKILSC
T2 sequence (P14416 whole entry): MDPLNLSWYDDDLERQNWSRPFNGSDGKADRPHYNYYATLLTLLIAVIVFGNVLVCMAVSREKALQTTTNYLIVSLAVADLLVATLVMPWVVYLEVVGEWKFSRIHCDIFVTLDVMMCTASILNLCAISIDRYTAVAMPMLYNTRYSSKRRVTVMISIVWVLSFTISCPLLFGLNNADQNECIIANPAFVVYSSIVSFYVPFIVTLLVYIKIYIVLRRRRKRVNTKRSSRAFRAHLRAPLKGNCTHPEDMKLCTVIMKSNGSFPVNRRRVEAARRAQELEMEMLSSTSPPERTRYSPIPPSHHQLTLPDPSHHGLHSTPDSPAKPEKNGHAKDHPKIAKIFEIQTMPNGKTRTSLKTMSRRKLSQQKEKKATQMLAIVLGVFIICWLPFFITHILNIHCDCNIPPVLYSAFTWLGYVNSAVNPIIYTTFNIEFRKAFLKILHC

Structure (SMILES) | inhibition (D(3) dopamine receptor [1]) | inhibition (D(2) dopamine receptor [2]) | Ki (D(3) dopamine receptor [3]) | Ki (D(2) dopamine receptor [4]) | Ratio Ki (Homo sapiens)
O=C(CCCCN1CCN(c2cccc(C(F)(F)F)c2)CC1)Nc1nc2ccccc2[nH]1 | 27.7% and 34.9% | 34% and 14.3% | – | – | –
O=C(CCCCN1CCN(c2ccc(Cl)cc2)CC1)Nc1nc2ccc([N+](=O)[O-])cc2s1 | 45.2% | 30.2% | – | – | –
O=C(CCCCN1CCC(O)(c2ccc(Cl)cc2)CC1)Nc1nc2ccccc2s1 | 25.8% and 7.9% | 33.3% and 24.8% | – | – | –
O=C(CCCCN1CCN(c2ccc(Cl)cc2)CC1)Nc1nc2ccccc2[nH]1 | 35.5% | 29.9% | – | – | –
O=C(CCCCN1CCN(c2ccccc2F)CC1)Nc1nc2ccccc2s1 | 75.1% and 63.1% | – | 0.0039 µM | 0.175 µM | 45
O=C(CCCCN1CCN(c2ccc(Cl)cc2Cl)CC1)Nc1nc2ccccc2s1 | 46% and 48.3% | 14.5% and 15.2% | 0.0876 µM | 5.59 µM | 63.8
O=C(CCCCN1CCN(c2ccc(Cl)cc2)CC1)Nc1nc2ccccc2o1 | 56.1% | 40.9% | – | – | –
O=C(CCCCN1CCN(c2ccc(Cl)cc2)CC1)Nc1nc2ccc(Cl)cc2s1 | 30.3% and 26.2% | 7% and 11% | – | – | –

The remaining lines, values ahead:

inhibition (D(3) dopamine receptor [1]) | inhibition (D(2) dopamine receptor [2]) | Ki (D(3) dopamine receptor [3]) | Ki (D(2) dopamine receptor [4]) | Ratio Ki (Homo sapiens) | Structure (SMILES)
65.2% | 57.3% | – | – | – | O=C(CCCCN1CCN(c2ccc(Cl)cc2)CC1)Nc1nc2ccccc2s1
60.5% and 81.6% | 78.8% and 54.5% | – | – | – | COc1ccc2nc(NC(=O)CCCCN3CCN(c4ccccc4Cl)CC3)sc2c1
1.7% | -4.1% | – | – | – | O=C(CCCCN1CCN(c2ccc(Cl)cc2)CC1)Nc1nc2cc(Cl)ccc2o1
– | – | 0.0094 µM | 0.197 µM | 21 | COc1ccc2nc(NC(=O)CCCCN3CCN(c4ccc(Cl)cc4)CC3)sc2c1
13.4% | 1% | – | – | – | Cc1ccc2nc(NC(=O)CCCCN3CCN(c4ccc(Cl)cc4)CC3)sc2c1
33.4% and 28.7% | 3.1% and 2.6% | – | – | – | COc1ccc2nc(NC(=O)CCCCN3CCN(c4ccc(Cl)cc4F)CC3)sc2c1
34.8% and 12.8% | 30.1% and 6.9% | – | – | – | O=C(CCCCN1CCN(c2cccc(Cl)c2Cl)CC1)Nc1nc2ccccc2s1
